Measured values published in the NIST ThermoML archive (doi:10.1021/acs.jced.8b00157).
“And” between values parts separate entries of the source, which are not always exact repeats. Equal entries are not always repeated.

Test: an = ratio of the nth substance listed
Settings: 100 kPa, Liquid, Buoyancy - hydrostatic balance

[F][Al]([F])[F] [aluminum fluoride] + [F-].[K+]
Settings | mass density
1123.5 K, a2 = 1.5 | 1749 kg/m3
1124 K, a2 = 1.5 | 1748 kg/m3
1124.4 K, a2 = 1.5 | 1748 kg/m3
1124.9 K, a2 = 1.5 | 1747 kg/m3
1125.1 K, a2 = 1.5 | 1747 kg/m3
1125.7 K, a2 = 1.5 | 1747 kg/m3
1126.2 K, a2 = 1.5 | 1747 kg/m3
1126.6 K, a2 = 1.5 | 1746 kg/m3
1127 K, a2 = 1.5 | 1746 kg/m3
1127.4 K, a2 = 1.5 | 1746 kg/m3
1127.8 K, a2 = 1.5 | 1745 kg/m3
1128.2 K, a2 = 1.5 | 1745 kg/m3
1128.6 K, a2 = 1.5 | 1745 kg/m3
1128.9 K, a2 = 1.5 | 1745 kg/m3
1129.6 K, a2 = 1.5 | 1744 kg/m3
1129.8 K, a2 = 1.5 | 1744 kg/m3
1130.3 K, a2 = 1.5 | 1743 kg/m3
1130.8 K, a2 = 1.5 | 1743 kg/m3
1131 K, a2 = 1.5 | 1743 kg/m3
1131.5 K, a2 = 1.5 | 1742 kg/m3
1132 K, a2 = 1.5 | 1742 kg/m3
1132.3 K, a2 = 1.5 | 1742 kg/m3
1132.7 K, a2 = 1.5 | 1742 kg/m3
1133.2 K, a2 = 1.5 | 1741 kg/m3
1133.6 K, a2 = 1.5 | 1741 kg/m3
1134 K, a2 = 1.5 | 1741 kg/m3
1134.3 K, a2 = 1.5 | 1740 kg/m3
1134.8 K, a2 = 1.5 | 1740 kg/m3
1135.2 K, a2 = 1.5 | 1740 kg/m3
1135.6 K, a2 = 1.5 | 1739 kg/m3
1136.1 K, a2 = 1.5 | 1739 kg/m3
1163.2 K, a2 = 1.7 | 1864 kg/m3
1163.3 K, a2 = 1.7 | 1864 kg/m3
1163.4 K, a2 = 1.7 | 1864 kg/m3
1163.6 K, a2 = 1.7 | 1863 kg/m3
1164.4 K, a2 = 1.7 | 1863 kg/m3
1165 K, a2 = 1.7 | 1864 kg/m3
1165.1 K, a2 = 1.7 | 1863 kg/m3
1165.3 K, a2 = 1.7 | 1862 kg/m3 and 1863 kg/m3
1165.4 K, a2 = 1.7 | 1863 kg/m3
1166.1 K, a2 = 1.7 | 1861 kg/m3
1166.2 K, a2 = 1.7 | 1861 kg/m3
1166.4 K, a2 = 1.7 | 1862 kg/m3
1166.6 K, a2 = 1.7 | 1862 kg/m3
1166.8 K, a2 = 1.7 | 1861 kg/m3
1167 K, a2 = 1.7 | 1860 kg/m3
1167.3 K, a2 = 1.7 | 1860 kg/m3 and 1861 kg/m3
1167.5 K, a2 = 1.7 | 1860 kg/m3
1167.6 K, a2 = 1.7 | 1861 kg/m3
1168.2 K, a2 = 1.7 | 1860 kg/m3
1168.6 K, a2 = 1.7 | 1859 kg/m3
1169.1 K, a2 = 1.7 | 1860 kg/m3 and 1859 kg/m3
1169.2 K, a2 = 1.7 | 1859 kg/m3
1169.4 K, a2 = 1.7 | 1858 kg/m3
1169.6 K, a2 = 1.7 | 1858 kg/m3
1169.7 K, a2 = 1.7 | 1858 kg/m3
1169.8 K, a2 = 1.7 | 1858 kg/m3
1170.3 K, a2 = 1.7 | 1857 kg/m3
1170.5 K, a2 = 1.7 | 1857 kg/m3
1170.6 K, a2 = 1.7 | 1857 kg/m3
1171.1 K, a2 = 1.7 | 1857 kg/m3
1172 K, a2 = 1.7 | 1856 kg/m3 and 1857 kg/m3
1172.2 K, a2 = 1.7 | 1855 kg/m3
1172.7 K, a2 = 1.7 | 1856 kg/m3
1173.3 K, a2 = 1.7 | 1856 kg/m3
1173.8 K, a2 = 1.7 | 1854 kg/m3
1174 K, a2 = 1.7 | 1855 kg/m3
1174.1 K, a2 = 1.7 | 1855 kg/m3 and 1854 kg/m3
1174.5 K, a2 = 1.7 | 1853 kg/m3
1174.6 K, a2 = 1.7 | 1854 kg/m3
1174.9 K, a2 = 1.7 | 1855 kg/m3
1175.1 K, a2 = 1.7 | 1852 kg/m3 and 1854 kg/m3
1175.4 K, a2 = 1.7 | 1854 kg/m3
1175.6 K, a2 = 1.7 | 1854 kg/m3
1175.8 K, a2 = 1.7 | 1853 kg/m3
1175.9 K, a2 = 1.7 | 1852 kg/m3
1176 K, a2 = 1.7 | 1852 kg/m3 and 1853 kg/m3
1176.8 K, a2 = 1.7 | 1851 kg/m3
1177.3 K, a2 = 1.7 | 1851 kg/m3
1177.5 K, a2 = 1.7 | 1852 kg/m3
1177.8 K, a2 = 1.7 | 1851 kg/m3
1177.9 K, a2 = 1.7 | 1852 kg/m3
1178.2 K, a2 = 1.7 | 1851 kg/m3
1178.3 K, a2 = 1.7 | 1851 kg/m3
1178.4 K, a2 = 1.7 | 1850 kg/m3
1179.5 K, a2 = 1.7 | 1849 kg/m3
1179.7 K, a2 = 1.7 | 1849 kg/m3
1179.8 K, a2 = 1.7 | 1850 kg/m3
1179.9 K, a2 = 1.7 | 1849 kg/m3
1180 K, a2 = 1.7 | 1850 kg/m3
1180.2 K, a2 = 1.7 | 1848 kg/m3
1180.4 K, a2 = 1.7 | 1849 kg/m3
1180.7 K, a2 = 1.7 | 1849 kg/m3
1181 K, a2 = 1.7 | 1848 kg/m3
1181.4 K, a2 = 1.7 | 1849 kg/m3
1181.5 K, a2 = 1.7 | 1848 kg/m3
1181.8 K, a2 = 1.7 | 1847 kg/m3
1182.4 K, a2 = 1.7 | 1846 kg/m3 and 1847 kg/m3 and 1848 kg/m3
1182.6 K, a2 = 1.7 | 1847 kg/m3
1182.7 K, a2 = 1.7 | 1847 kg/m3
1183.2 K, a2 = 1.7 | 1846 kg/m3
1183.6 K, a2 = 1.7 | 1846 kg/m3
1183.8 K, a2 = 1.7 | 1846 kg/m3
1184.2 K, a2 = 1.7 | 1846 kg/m3
1184.3 K, a2 = 1.7 | 1845 kg/m3
1184.6 K, a2 = 1.7 | 1846 kg/m3
1184.8 K, a2 = 1.7 | 1845 kg/m3
1184.9 K, a2 = 1.7 | 1845 kg/m3
1185.1 K, a2 = 1.7 | 1845 kg/m3
1185.4 K, a2 = 1.7 | 1844 kg/m3
1185.7 K, a2 = 1.7 | 1844 kg/m3
1186.3 K, a2 = 1.7 | 1843 kg/m3
1186.4 K, a2 = 1.7 | 1844 kg/m3
1186.5 K, a2 = 1.7 | 1844 kg/m3
1186.8 K, a2 = 1.7 | 1843 kg/m3
1186.9 K, a2 = 1.7 | 1843 kg/m3
1187.8 K, a2 = 1.7 | 1843 kg/m3 and 1842 kg/m3 and 1842 kg/m3
1188.1 K, a2 = 1.7 | 1842 kg/m3
